# Reference: patent US9751837B2, “Kinase inhibitors” (RESPIVERT LIMITED, priority 2014, dated 2017)
# Assays:
# Jurkat cells = test: Cell cytotoxicity assay (r); assay type: cell-based, human; conditions: 24 hours
# Experimental: 1×10^5 Jurkat cells (immortalised human T lymphocytes) are added to the appropriate number of wells of a 96 well plate in 100 μL of media (RPMI supplemented with 10% foetal bovine serum). 1 μL of DMSO control (final concentration 1.0% v/v) or test compound (final concentration 20, 5 or 1 μg/mL) is added to the wells and incubated at 37° C., 5% CO2. After 24 hours, the plate is centrifuged at 1200 rpm for 3 minutes and the supernatant discarded. Cells are then resuspended in 150 μL (final concentration 7.5 μg/mL) of propidium iodide (PI) in PBS and incubated at 37° C., 5% CO2 for 15 minutes. After 15 minutes, cells are analysed by flow cytometry (BD accuri) using the FL3 window. The % viability is calculated as the % of cells that are PI negative in the test wells normalised to the DMSO control.
# [1] = Solubility in fasted-state simulated colonic fluid (FaSSCoF) at pH 6.5; assay type: physicochemical; conditions: 25 °C, pH 6.5, fassgf or other biorelevant, thermodynamic from solid
# In short: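 Compounds were suspended at up to 2-10 mg/mL in pH 6.5 Tris/maleate FaSSCoF containing a five-bile-acid mixture, phosphatidylcholine, palmitic acid and BSA. After 24 h equilibration at 25° C the suspension was filtered and the filtrate quantified by HPLC peak area against a standard.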
# [2] = pH 6.5 FaSSCoF Solubility (mg/mL) Run 1
# [3] = pH 6.5 FaSSCoF Solubility (mg/mL) Run 2
SMILES,% Viability at 1 μg/mL (Jurkat cells),"solubility thermodynamic at 24 h [1, 2]","solubility thermodynamic at 24 h [1, 3]",% Viability at 20 μg/mL (Jurkat cells),% Viability at 5 μg/mL (Jurkat cells)
"COc1cc(Nc2cc(Oc3ccc(NC(=O)Nc4cc(C(C)(C)C)cc(NS(C)(=O)=O)c4OC)c4ccccc34)ccn2)cc(OC)c1C(=O)NCCCN1CCN(C)CC1 [17(au), 4-((4-((4-(3-(5-(tert-Butyl)-2-methoxy-3-(methylsulfonamido)phenyl)ureido)naphthalen-1-yl)oxy)pyridin-2-yl)amino)-2,6-dimethoxy-N-(3-(4-methylpiperazin-1-yl)propyl)benzamide]",94.0%,32 µg/mL,23 µg/mL,,
"COc1cc(Nc2nccc(Oc3ccc(NC(=O)Nc4cc(C(C)(C)C)cc(NS(C)(=O)=O)c4OC)c4ccccc34)n2)cc(OC)c1C(=O)NCCN1CCN(C)CC1 [17(az), 4-((4-((4-(3-(5-(tert-Butyl)-2-methoxy-3-(methylsulfonamido)phenyl)ureido)naphthalen-1-yl)oxy)pyrimidin-2-yl)amino)-2,6-dimethoxy-N-(2-(4-methylpiperazin-1-yl)ethyl)benzamide]",,1 µg/mL,1 µg/mL,4.5%,
"COc1cc(Nc2cc(Oc3ccc(NC(=O)Nc4cc(C(C)(C)C)cc(NS(C)(=O)=O)c4OC)c4ccccc34)ccn2)ccc1S(=O)(=O)N(C)CCN1CCN(C)CC1 [17(bb), 4-((4-((4-(3-(5-(tert-Butyl)-2-methoxy-3-(methylsulfonamido)phenyl)ureido)naphthalen-1-yl)oxy)pyridin-2-yl)amino)-2-methoxy-N-methyl-N-(2-(4-methylpiperazin-1-yl)ethyl)benzenesulfonamide]",,< 1 µg/mL,< 1 µg/mL,0.2%,
"COc1cc(Nc2cc(Oc3ccc(NC(=O)Nc4cc(C(C)(C)C)cc(NS(C)(=O)=O)c4OC)c4ccccc34)ccn2)ccc1C(=O)NCCN1CCN(C(C)C)CC1 [17(bf), 4-((4-((4-(3-(5-(tert-Butyl)-2-methoxy-3-(methylsulfonamido)phenyl)ureido)naphthalen-1-yl)oxy)pyridin-2-yl)amino)-N-(2-(4-isopropylpiperazin-1-yl)ethyl)-2-methoxybenzamide]",,13 µg/mL,15 µg/mL,0.6%,1.5%
"COc1cc(Nc2cc(Oc3ccc(NC(=O)Nc4cc(C(C)(C)C)cc(NS(C)(=O)=O)c4OC)c4ccccc34)ccn2)ccc1C(=O)NCCC1(O)CCN(C)CC1 [17(bg), 4-((4-((4-(3-(5-(tert-Butyl)-2-methoxy-3-(methylsulfonamido)phenyl)ureido)naphthalen-1-yl)oxy)pyridin-2-yl)amino)-N-(2-(4-hydroxy-1-methylpiperidin-4-yl)ethyl)-2-methoxy benzamide]",,16 µg/mL,19 µg/mL,0.3%,60.0%
"COc1cc(Nc2cc(Oc3ccc(NC(=O)Nc4cc(C(C)(C)C)cc(NS(C)(=O)=O)c4OC)c4ccccc34)ccn2)ccc1C(=O)N(C)CCN1CCN(C)CC1 [17(bh), 4-((4-((4-(3-(5-(tert-Butyl)-2-methoxy-3-(methylsulfonamido)phenyl)ureido)naphthalen-1-yl)oxy)pyridin-2-yl)amino)-2-methoxy-N-methyl-N-(2-(4-methylpiperazin-1-yl)ethyl)benzamide]",,16 µg/mL,19 µg/mL,0.6%,
"COc1cc(Nc2cc(Oc3ccc(NC(=O)Nc4cc(C(C)(C)C)cc(NS(C)(=O)=O)c4OC)c4ccccc34)ccn2)ccc1C(=O)NC(C)CN1CCN(C)CC1 (centres unmarked) [17(bl), 4-((4-((4-(3-(5-(tert-Butyl)-2-methoxy-3-(methylsulfonamido)phenyl)ureido)naphthalen-1-yl)oxy)pyridin-2-yl)amino)-2-methoxy-N-(1-(4-methylpiperazin-1-yl)propan-2-yl)benzamide]",,16 µg/mL,17 µg/mL,0.5%,0.2%
"COc1cc(Nc2cc(Oc3ccc(NC(=O)Nc4cc(C(C)(C)C)cc(NS(C)(=O)=O)c4OC)c4ccccc34)ccn2)ccc1C(=O)NCCOCCO [17(bm), 4-((4-((4-(3-(5-(tert-Butyl)-2-methoxy-3-(methylsulfonamido)phenyl)ureido)naphthalen-1-yl)oxy)pyridin-2-yl)amino)-N-(2-(2-hydroxyethoxy)ethyl)-2-methoxybenzamide]",,5 µg/mL,5 µg/mL,0.5%,0.2%
"COc1cc(Nc2cc(Oc3ccc(NC(=O)Nc4cc(NS(C)(=O)=O)cc(C(C)(C)C)c4)c4ccccc34)ccn2)ccc1C(=O)NCCN1CCN(C)CC1 [17(bo), 4-((4-((4-(3-(3-(tert-Butyl)-5-(methylsulfonamido)phenyl)ureido)naphthalen-1-yl)oxy)pyridin-2-yl)amino)-2-methoxy-N-(2-(4-methylpiperazin-1-yl)ethyl)benzamide]",,35 µg/mL,33 µg/mL,14.0%,
"COc1cc(Nc2cc(Oc3ccc(NC(=O)Nc4cc(NS(C)(=O)=O)cc(C(C)(C)C)c4)c4ccccc34)ccn2)ccc1C(=O)NCCCN1CCN(C)CC1 [17(bp), 4-((4-((4-(3-(3-(tert-Butyl)-5-(methylsulfonamido)phenyl)ureido)naphthalen-1-yl)oxy)pyridin-2-yl)amino)-2-methoxy-N-(3-(4-methylpiperazn-1-yl)propyl)benzamide]",,23 µg/mL,24 µg/mL,2.0%,41.0%
"COc1c(NC(=O)Nc2ccc(Oc3ccnc(Nc4ccc(C(=O)NCCN5CCN(C)CC5)c(N(C)C)c4)c3)c3ccccc23)cc(C(C)(C)C)cc1NS(C)(=O)=O [17(bq), 4-((4-((4-(3-(5-(tert-Butyl)-2-methoxy-3-(methylsulfonamido)phenyl)ureido)naphthalen-1-yl)oxy)pyridin-2-yl)amino)-2-(dimethylamino)-N-(2-(4-methylpiperazin-1-yl)ethyl)benzamide]",,9 µg/mL,9 µg/mL,2.0%,
"COc1cc(Nc2cc(Oc3ccc(NC(=O)Nc4cc(C(C)(C)C)cc(NS(C)(=O)=O)c4OC)c4ccccc34)ccn2)cc(OC)c1C(=O)NCC1CCN(C)CC1 [17(ca), 4-((4-((4-(3-(5-(tert-Butyl)-2-methoxy-3-(methylsulfonamido)phenyl)ureido)naphthalen-1-yl)oxy)pyridin-2-yl)amino)-2,6-dimethoxy-N-((1-methylpiperidin-4-yl)methyl)benzamide]",,2 µg/mL,2 µg/mL,,94.0%
"COc1cc(Nc2cc(Oc3ccc(NC(=O)Nc4cc(C(C)(C)C)cc(NS(C)(=O)=O)c4OC)c4ccccc34)ccn2)ccc1C(=O)NCCN1CCN(C(=O)CC[C@H](N)C(=O)O)CC1 [17(cl), (S)-2-Amino-5-(4-(2-(4-((4-((4-(3-(5-(tert-butyl)-2-methoxy-3-(methylsulfonamido)-phenyl)ureido)naphthalen-1-yl)oxy)pyridin-2-yl)amino)-2-methoxybenzamido)ethyl)piperazin-1-yl)-5-oxopentanoic acid]",,9 µg/mL,6 µg/mL,,94.0%
"COc1cc(Nc2cc(Oc3ccc(NC(=O)Nc4cc(C(C)(C)C)cc(NS(C)(=O)=O)c4OC)c4ccccc34)ccn2)ccc1C(=O)NC(CO)(CO)CO [17(cm), 4-((4-((4-(3-(5-(tert-Butyl)-2-methoxy-3-(methylsulfonamido)phenyl)ureido)naphthalen-1-yl)oxy)pyridin-2-yl)amino)-N-(1,3-dihydroxy-2-(hydroxymethyl)propan-2-yl)-2-methoxybenzamide]",,8 µg/mL,9 µg/mL,,77.0%
"COc1cc(Nc2cc(Oc3ccc(NC(=O)Nc4cc(C(C)(C)C)cc(NS(C)(=O)=O)c4OC)c4ccccc34)ccn2)ccc1-c1nn[nH]n1 [Example 24, N-(5-(tert-Butyl)-2-methoxy-3-(3-(4-((2-((3-methoxy-4-(2H-tetrazol-5-yl)phenyl)amino)pyridin-4-yl)oxy)naphthalen-1-yl)ureido)phenyl)methanesulfonamide]",,12 µg/mL,10 µg/mL,9.7%,
"COc1cc(Nc2nccc(Oc3ccc(NC(=O)Nc4cc(C(C)(C)C)cc(NS(C)(=O)=O)c4OC)c4ccccc34)n2)ccc1S(N)(=O)=O [Example 28, 4-((4-((4-(3-(5-(tert-Butyl)-2-methoxy-3-(methylsulfonamido)phenyl)ureido)naphthalen-1-yl)oxy)pyrimidin-2-yl)amino)-2-methoxybenzenesulfonamide]",100.0%,< 1 µg/mL,< 1 µg/mL,,
"COc1c(NC(=O)Nc2ccc(Oc3ccnc(Nc4ccc(C(=O)NCCCN5CCOCC5)c(O)c4)c3)c3ccccc23)cc(C(C)(C)C)cc1NS(C)(=O)=O [Example 29, 4-((4-((4-(3-(5-(tert-Butyl)-2-methoxy-3-(methylsulfonamido)phenyl)ureido)naphthalen-1-yl)oxy)pyridin-2-yl)amino)-2-hydroxy-N-(3-morpholinopropyl)benzamide]",,11 µg/mL,9 µg/mL,2.0%,
